In patent publication US9468624B2, “Small molecule antagonists of bacterial quorum-sensing receptors” (priority 2008, dated 2016):

Legend:
CviR [1] = target: T1, CviR (Chromobacterium violaceum, UniProt D3W065); type: binding; parameters: made in house; host or cells: E. coli BL21(DE3) pLysS, plasmid pET23b; settings: for DNA binding of ligand-loaded CviR to vioA promoter: CviR 100-500 nM
Description: (§1) CviR Overexpression and Purification. CviR was overexpressed in BL21(DE3) pLysS by growing an overnight culture in LB supplemented with 100 μg/mL ampicillin and 10 μg/mL chloramphenicol. The culture was diluted 1:50 into fresh LB supplemented with 100 μg/mL ampicillin and 10 μg/mL chloramphenicol and grown shaking at 37° C. to an OD600 of 0.4. Various AHL or antagonist molecules were added to at 50 μM and incubated an additional 30 minutes at 30° C., after which expression was induced by the addition of 100 μM IPTG (isopropyl-β-D-thiogalactopyranoside) for 4 hours at 30° C. Cells were harvested by centrifugation and lysed in 20 mM imidazole pH 8.0, 100 mM NaCl, 0.5 mM EDTA and 5% glycerol via a Micro-fluidizer processor (MicroFluidics). Protein was purified via ion-exchange using a Hitrap Heparin HP column (GE Healthcare). Protein was eluted with a 100 mM to 1 M NaCl gradient. Fractions containing CviR were pooled and diluted in lysis buffer devoid of NaCl, and then further purified by cation exchange chromatography using a Hitrap SP HP column (GE Healthcare). CviR was eluted with a 100 mM to 1 M NaCl gradient.
DNA probes for gel mobility shift analyses were generated by standard polymerase chain reaction using primers with a 5′ 6-FAM (fluorescein) tag (Integrated DNA Technologies). The target probe contained about 100 nucleotides of the vioA promoter. The control probe contained 300 bases of vioB intergenic DNA. 37 ng of each probe was incubated for 20 minutes at room temperature with the indicated amounts of CviR (0, 0.1, 0.2, 0.3, 0.4 and 0.5 μM) and 1 μg/μL poly-dIdC in 1× Gel shift buffer (40 mM Tris HCl pH 8.0, 100 mM KCL, 2 mM EDTA, 2 mM DTT, 10% glycerol, 200 μg/mL BSA). Gel mobility shifts were performed on 6% TGE-polyacrylamide gels and visualized using a Storm 860 Imaging System (Molecular Dynamics).
To further investigate the mechanism underlying antagonism of the CviR receptor, an examination was undertaken of whether the soluble CviR antagonist complexes were incapable of binding DNA, and thus unable to activate transcription. […] The CviR protein was also purified in complex with each of the synthetic antagonist molecules, 4606-4237, CTL, and CL. Performance of DNA gel mobility shift analyses enabled assessment of the binding of each of these purified, loaded protein complexes to the vioA promoter.
The reciprocal experiment tested whether C6-HSL could replace CL bound to CviR.

CviR [2] = target: T1, CviR; type: cell-based; parameters: made in house; host or cells: E. coli BL21(DE3) pLysS, plasmid pET23b; settings: for induction of vioA-gfp expression through CviR: even at 100 μM; for EC50: E. coli expressing CviR, vioA-gfp reporter, read-out: EC50 for activation of vioA-gfp expression; for maximal level of vioA-gfp expression: compared with C6-HSL
Description: (§2) The vioA-gfp promoter fusion was constructed by amplifying the vioA promoter and cloning this region upstream of gfp in pEVS141 at the SphI and SalI sites. Cells containing the vioA-gfp construct were electroporated with the pET23 carrying cviR and selected on LB medium supplemented with 75 μg/mL ampicillin and 50 μg/mL kanamycin. The E. coli strain containing cviR and the vio:gfp reporter is named ELS1257.
(§3) E. coli strains were grown overnight in LB medium with antibiotics at 37° C. and sub-cultured into fresh medium at a 1:100 dilution. Various AHL and antagonists were added at constant concentrations or titrated as stated. The gfp was measured on an Envision plate reader after 5 hours of growth at 37° C. C. violaceum strains were grown aerobically in 1 mL Nutrient Broth plus 1 mM tryptophan at 30° C. […] Cells were collected via centrifugation at 13000 rpm for 15 minutes. Pellets were resuspended in 1 mL of methanol and incubated at 42° C. for 1 hour. Samples were again collected via centrifugation at 13000 rpm for 5 minutes and analyzed for violacein by measuring optical density at 568 nm on a Beckman Coulter DU-800 spectrophotometer. For the dose-response analyses, all assays were performed in triplicate.
To examine the specificity and sensitivity of CviR, an E. coli strain was engineered that expresses CviR and contains a plasmid harboring the vioA promoter fused to green fluorescent protein (gfp). Thus, the ability of CviR to activate transcription can be assessed by measuring gfp expression in the presence of various molecules.

CviR [3] = target: T1, CviR; assay: cell-based; type: cell-based; parameters: made in house; host or cells: E. coli BL21(DE3) pLysS, plasmid pET23b; settings: constant 500 nM C6-HSL; read-out: IC50 for inhibition of vioA-gfp expression
Description: as §2, §3
However, binding of the longer acyl-tail length AHL molecules disrupts the transcriptional activation ability of CviR.
To determine if 4606-4237 inhibits violacein production specifically by interfering with CviR, 4606-4237 was tested for antagonism of CviR in the recombinant E. coli vioA-gfp assay. For these experiments, C6-HSL was held constant at 500 nM, while 4606-4237 was titrated from 1.3 nM to 100 μM (FIG. 3D). […] Importantly, no C. violaceum components other than CviR are present in the recombinant E. coli assay strain. Thus, any inhibition occurring would be due to a specific interaction between the antagonist molecule 4606-4237 and CviR rather than an interaction of 4606-4237 with some unknown component required for violacein production in C. violaceum.

[4] = system: CviR-dependent violacein production; assay: Violacein production in C. violaceum cviI mutant with exogenous C6-HSL; type: cell-based, Chromobacterium violaceum; settings: 5 μM C6-HSL, 50 μM antagonist
Description: as §3
High-throughput chemical library screens had identified 15 molecules that inhibit AHL detection by the membrane-bound two-component AHL receptor LuxN (structures are provided in FIG. 8A). Experiments were undertaken to establish whether any of these LuxN antagonist molecules could also interfere with AHL binding to CviR. […] The native C6-HSL signal was added exogenously and held constant at 5 μM and violacein production was measured in the presence of 50 μM of each potential antagonist (FIG. 8B).

bacterial growth = assay: Bacterial growth in presence of antagonist; type: cell-based, Chromobacterium violaceum
[5] = system: CviR-dependent violacein production; assay: Violacein production in wild type C. violaceum, dose-response; type: cell-based; settings: Chromobacterium violaceum, read-out: IC50 for inhibition of violacein production
Description: as §3
To determine if 4606-4237 inhibits violacein production specifically by interfering with CviR, 4606-4237 was tested for antagonism of CviR in the recombinant E. coli vioA-gfp assay. For these experiments, C6-HSL was held constant at 500 nM, while 4606-4237 was titrated from 1.3 nM to 100 μM (FIG. 3D). This concentration of native C6-HSL signal induces maximal gfp production in this heterologous assay system. Importantly, no C. violaceum components other than CviR are present in the recombinant E. coli assay strain. Thus, any inhibition occurring would be due to a specific interaction between the antagonist molecule 4606-4237 and CviR rather than an interaction of 4606-4237 with some unknown component required for violacein production in C. violaceum. […] Thus, 4606-4237 functions by disabling CviR-mediated activation of gene expression in both the C. violaceum in vivo violacein assay and the recombinant E. coli vioA-gfp assay.

[6] = system: C. violaceum killing of C. elegans; assay: C. elegans life span assay following C. violaceum infection; type: in vivo, Caenorhabditis elegans; settings: C. violaceum cviI mutant
Description: Life Span Assays. C. elegans lifespan assays were completed with at least 100 wild type N2 worms for each condition. C. elegans eggs were harvested from a large population of gravid adults using a standard bleaching protocol (30 mL 5% bleach, 15 mL N KOH, 55 mL DH2O). Harvested eggs were placed on lawns of fresh E. coli OP50 and allowed to hatch and grow to the young adult (L4) stage before being moved onto lawns of C. violaceum. Worms were scored for survival each day and transferred to new C. violaceum lawns every two days until all worms had expired.
In the presence of the mutant strain, the median C. elegans lifespan is twelve days (FIG. 7A; DMSO control). Exogenous addition of the native autoinducer molecule, C6-HSL restored quorum sensing and complemented the cviI mutant's ability to kill C. elegans (median lifespan=4 days, FIG. 7A).

CviR [7] = target: T1, CviR; settings: CviR expressed in E. coli, whole cell vs soluble extract, ligand 50 μM
Description: as §1
The solubility characteristics of CviR were analyzed in the presence of the various molecules under study. […] As controls, the protein was also expressed in the absence of any AHL or antagonist. In each case, whole cell and soluble fractions of cell lysates were analyzed by SDS-PAGE to assess whether the CviR protein in question had been stabilized.

T1 sequence (D3W065 1-265): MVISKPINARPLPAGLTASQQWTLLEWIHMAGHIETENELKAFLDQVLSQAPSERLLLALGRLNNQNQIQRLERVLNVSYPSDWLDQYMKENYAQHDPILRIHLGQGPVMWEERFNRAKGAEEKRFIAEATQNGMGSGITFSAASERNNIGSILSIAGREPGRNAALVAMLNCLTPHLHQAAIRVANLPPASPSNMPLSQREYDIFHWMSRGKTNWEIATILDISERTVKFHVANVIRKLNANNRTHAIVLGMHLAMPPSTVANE

Compound | DNA binding of ligand-loaded CviR to vioA promoter (CviR [1]) | induction of vioA-gfp expression through CviR (CviR [2]) | IC50 (CviR [3]) [nM] | EC50 (CviR [2]) [nM] | further results
CCCCCCCCCCCCCC(=O)N[C@H]1CCOC1=O [C14-HSL] | no ability to bind DNA | do not induce vioA-gfp expression | 268 |  | 
Cc1cc(Cl)ccc1OCCCC(=O)NC1CCSC1=O (centres unmarked) [4606-4237, 4-(4-chloro-2-methylphenoxy)-N-(2-oxotetrahydrothiophen-3-yl)butanamide] | no ability to bind DNA |  |  |  | violacein production [4]: completely abolished violacein production; inhibition of bacterial growth (bacterial growth): does not inhibit bacterial growth; IC50 [5]: 1200 nM; C. elegans median survival ([6]; C6-HSL 5 μM and 4606-4237 50 μM added simultaneously): twelve; effect on C. elegans ([6]; no C6-HSL, 4606-4237 50 μM): had little affect on C. elegans
CCCC(=O)N[C@H]1CCOC1=O [C4-HSL] |  |  |  | 12000 | maximal level of vioA-gfp expression (CviR [2]): can induce maximal vioA-gfp expression
CCCCCCCCCCCC(=O)N[C@H]1CCOC1=O [C12-HSL] | no ability to bind DNA | do not induce vioA-gfp expression | 494 |  | 
CCCCCCCC(=O)N[C@H]1CCOC1=O [C8-HSL] | bound DNA with similar affinity to the C6-HSL loaded CviR complex |  |  | 30 | maximal level of vioA-gfp expression (CviR [2]): half of the maximal vioA-gfp expression induced by C6-HSL
CCCCCCCCCC(=O)N[C@H]1CCOC1=O [C10-HSL, reference compound] | does not abolish DNA binding | do not induce vioA-gfp expression | 208 |  | CviR folding and solubility in presence of ligand (CviR [7]): soluble
CCCCCC(=O)N[C@H]1CCOC1=O [C6-HSL, C6-homoserine lactone] | binds DNA with high affinity |  |  | 75 | ligand exchange on loaded CviR, effect on DNA binding (CviR [1]; 500 nM loaded CviR, competing ligand 0-10 μM): not likewise capable of replacing CL to generate fully competent DNA bound complex; CviR folding and solubility in presence of ligand (CviR [7]): soluble; median C. elegans lifespan ([6]; C6-HSL 5 μM added): 4 days
